From patent US20100074920A1 (priority 2006, published 2010)
Like-named read-outs stand apart in the source and are kept apart here.

Legend:
[1] = tested on: serum antibodies of test subjects 1-6; conditions: N-terminal conjugate on a streptavidin plate; sera 1-6
[2] = tested on: serum antibodies of test subjects 1-6; assay: ELISA on maleimide-activated plates (Cys-immobilized peptides); format: binding, human; conditions: Cys-conjugate on maleimide plate; sera 1-6
Description: Peptides containing cysteine were bound through the cysteine sulfhydryl group to maleimide activated plates (Reacti-Bind™ Maleimide activated plates, Pierce). The peptides sequences were as follows:
One hundred microliters of the peptide solution (0.5 nmol of peptide) was added to each well and allowed to react overnight at +4° C.
The unreacted maleimide groups were blocked with 2-mercaptoethanol: 150 μl of 1 mM 2-mercaptoethanol in 10 mM sodium phosphate/0.15 M NaCl/2 mM EDTA, pH 7.2 was added to each well and allowed to react for 1 hour at RT.
The serum obtained from person nr. […] Control wells contained no peptide but both 2-mercaptoethanol and BSA blockings were employed. All incubations were performed in duplicates.

[3] = tested on: serum antibodies of test subjects Serum 1B-8B; conditions: sera S1B-S8B; streptavidin immobilized peptide
[4] = tested on: commercial polyclonal antibody from rabbit; assay: ELISA control, peptide coated on maleimide plate; conditions: peptide coated on a maleimide plate; negligible binding without the peptide
Description: A commercial peptide […] (HM11-peptide), which has been used as a recognition tag on recombinant proteins was used as a control and for testing of analysis of binding between a free core peptide and human antibodies. Due to restricted availability of at least N-terminal sequence the peptide would not be very effective in immunization against the viral as therapy. This peptide is known to be antigenic in animals under immunization conditions and antibodies including polyclonals from rabbit, mice etc.

Row | Substance | immune response of the 6 sera, order of reactivity [1] | binding of serum antibodies (immune response), absorbance at 450 nm [3] | also measured
1 | Biotin-aminohexanoyl-PWVRGV [Peptide 3] | distinct pattern of immune recognition | – | –
2 | Biotin-aminohexanoyl-SYACKR [Peptide 2] | sera 2 and 5 showed strongest immune response before sera 3,4 and 6, while serum 1 showed weakest reaction | – | immune response of the 6 sera, order of reactivity [2]: reacted with sera similarly but reactions with serum 5 was weaker and the serum 6 showed the strongest response
3 | Biotin-aminocaproyl-CRPKVRDQC [Peptide 3B] | – | unusually high response, especially with a person S5B | –
4 | CYPYDVPDYA [HA11, commercial peptide used as a recognition tag on recombinant proteins; control and core peptide] | – | – | binding of commercial polyclonal antibody from rabbit to the peptide [4]: effective binding
5 | Biotin-aminocaproyl-CRPWVRGVC [Peptide 4B] | – | bind generally more strongly antibodies than the corresponding linear peptide 3 | –
